# Measured values as given in patent publication US20240197712A1, “TGF-BETA INHIBITION FOR IMMUNODEFICIENCY VIRUS REACTIVATION FROM LATENCY, ENHANCEMENT OF IMMUNODEFICIENCY VIRUS-SPECIFIC RESPONSES AND IMMUNODEFICIENCY VIRUS CURE” (Northwestern University, priority 2022, published 2024).
# How the values were obtained:
# Type in all cases: in vivo, rhesus macaques
# [1] = tested on: pSMAD2/3; experiment: PhosphoSMAD2/3 over total SMAD2/3 in PBMC (ELISA); conditions: 2.5 or 5 mg/kg twice daily, 9 days
# Description: Eight naïve macaques (FIG. 9) were used to collect plasma and PBMC for PK/PD studies. 4 macaques received galunisertib (2.5 mg/kg, n=2 or 5 mg/kg, n=2) once and blood was collected at 1 hr, 3 hr and 6 hrs, 24 hrs and 48 hrs. 4 macaques received galunisertib (2.5 mg/kg, n=2 or 5 mg/kg, n=2) twice daily for 9 days and samples were collected 1 hr, 3 hr and 8 hrs after administration on day 1 and on day 9 right before and 1 hr and 3 and 6 hrs after the last administration. Plasma concentrations of galunisertib were measured by IMSERC (Integrated Molecular Structure Education and Research Center) utilizing liquid chromatography mass spectrometry (Shimadzu Kyoto, Japan ultra-high performance liquid chromatography—UHPLC—system and SCIEX Framingham, MA Qtrap 6500+ triple quadrupole mass spectrometer). […] All samples and standards were processed in duplicate with the average area under the curve (AUC) being used for quantitation reporting. […] The resulting limit of quantitation (LOQ) was 1.0 ng/ml.
# For PD studies, the levels of phosphorylated SMAD2/3 were measured using the PathScan PhospoSMAD2/3 ELISA kit (Cell Signaling Technology, CST) over the levels of Total SMAD2/3 in cell lysates Total SMAD ELISA Kit (Cell Signaling Technology, CST) normalized on protein content.
# [2] = tested on: SIVmac239M2; experiment: Plasma viral load, four 2-week galunisertib cycles
# Description: Rhesus macaques (n=8 main study+4 separate non-concomitant study) were infected with 300 TCID50 of the barcoded SIVmac239M2 stock intravenously and ART (Tenofovir [PMPA], Emtricitabine [FTC] and Dolutegravir [DTG]) was initiated on week 6 pi. Galunisertib treatment was initiated on week 35 p.i. Powder (MedChemExpress—MCE, NJ, USA) was dissolved in water and given orally in a treat twice daily at 20 mg/kg. 4 cycles of 2 weeks daily treatment with 2 weeks wash out period were performed. Macaques 08M156 and A6X003 were given the rhesus recombinant antibody (rhesus/human chimeric) anti-PD1 antibody [NIVOR4LALA; comprising silenced rhesus IgG4k […] constant regions and variable regions from anti-human PD-1, nivolumab; non-human primates reagents resource, NHPRR. Blood viral load was monitored biweekly before and during ART and every 3-4 days during Galunisertib treatment. Colorectal biopsies and LN FNA were collected before and after galunisertib treatment. ART was terminated 3 weeks after the last galunisertib dose and euthanasia and necropsy to harvest tissues were performed at week 58 post infection, tissues samples were flash frozen, fixed in OCT or Z-fix.
# Blood was collected in EDTA tubes and plasma was separated by density gradient centrifugation and used for the determination of plasma VL by SIVgag qRT-PCR at NIRC or at Leidos (Quantitative Molecular Diagnostics Core, AIDS and Cancer Virus Program Frederick National Laboratory). Tissue VL from snap frozen PBMC pellets, colorectal biopsies and LN FNA were performed as described in (77). SIV-TILDA was performed on freshly stored PBMC before cycle 1 and at the end of cycle 4 of galunisertib by Accelevir, Baltimore, MD.
# [3] = tested on: T and NK cells; experiment: High parameter flow cytometry of PBMC T and NK cells
# Excerpt: Colorectal biopsy tissues were isolated by enzymatic digestion while LN biopsies were passed through a 70 μm cell strainer as described in (110). FlowJo vs 10.8 was use for both classical and high-dimensional analysis. PeacoQC, FlowtSNE and FlowSOM plug-ins were used with default settings. SwiftReg was used for normalization (113).
# Peripheral blood mononuclear cells (PBMCs) collected from 8 macaques at 7 time points spanning Cycle 1 to Cycle 4 (refer to Table 5) were employed for high-parameter flow cytometry staining. Cells from before and after cycle 1 and at the end of cycle 3 were used for Tfh/Treg assay. In both cases, cell fixation and permeabilization for intracellular staining were carried out using the FoxP3 Staining Buffer set (Thermo Fisher Scientific, Carlsbad, CA). The high-dimensional panel consisted of antibodies outlined in Table 4, catering to requirements for surface and intracellular staining, as well as viability assessment. Each antibody was individually titrated to ensure optimal staining conditions. Data acquisition was performed using the FACSymphony A5.2 Spectral Analyzer. Following data collection, spectral compensation was implemented utilizing FlowJo™ v10.8 Software (BD Life Sciences). 60,000 live singlet lymphocytes from each of samples was downsampled to prevent disproportionate representation by samples with higher cell counts, ensuring balanced subsequent analysis. To mitigate batch effects, we utilized the swiftReg Neighbor-Dependent Cluster Registration (NDCR) method available within the SWIFT package(112). This method effectively addresses batch variations while preserving the inherent biological diversity. […] Furthermore, we implemented the Peak Extraction and Cleaning Oriented Quality Control (PeacoQC) procedure (138) in FlowJo™ v10.8 to eliminate low-quality events arising from potential issues like clogs, speed fluctuations, and slow sample uptake. FlowSOM FlowJo plugin was employed for automated cell population identification, preceded by the utilization of Phenograph to obtain optimal cluster numbers for dimensional reduction, for the merged data of All Time points and BC1 vs AC4 merged data respectively. The Supplementary FIG. 29A heatmap illustrates the median fluorescence intensity (MFI) values for all markers across all clusters. A tSNE plot, generated in FlowJo™ using the markers employed in the FlowSOM analysis, is presented, with coloring based on the FlowSOM clustering or two specific time points, BC1 vs AC4 in FIG. 4G.
smiles,measurement,setting,value
"Cc1cccc(-c2nn3c(c2-c2ccnc4ccc(C(N)=O)cc24)CCC3)n1 [galunisertib, Galunisertib]",reduction in pSMAD2/3 over total SMAD in PBMC,[1],~25%
same,macaques with increased pVL after start of treatment,"[2]; 20 mg/Kg twice daily orally, 4 cycles",7 out of 8
same,increases in pVL in fully suppressed macaques,"[2]; 08M171, A8R095 and A8L057",> 102 copies/ml
same,viral rebound after ART interruption,"[2]; ART discontinued 3 weeks after last dose, 6 weeks follow-up",One macaque did not rebound
same,macaques with viral blips above 100 copies/ml in blood,"[2]; Example 5, 7 macaques, 20 mg/kg twice per day, four 2-weeks cycles",5 out of the 7
same,pVL peaks during treatment,[2]; macaques with several peaks,up to 103 copies/ml
same,pVL blips in A8T010 and A8R095 after treatment initiation,[2]; undetectable for over 5 weeks before,up to 102 copies/ml
same,proliferation marker Ki67 in NK cells,[3]; AC1 vs BC1,initial increase
same,T-Bet in CD8+ T cells,[3]; BC2 vs BC1,significant decrease
same,systemic immune activation,"[3]; Example 5, end of 1st cycle, PBMC RNAseq, CD69 and CD38 on T cells",did non induce systemic immune activation
same,"effector phenotype in T cells (CD95, CD62L)","[3]; Example 5, preliminary data",increased expression of CD95
same,TCF1 expression in CD4+ T cells,"[3]; PBMC, throughout treatment",profound consistent decrease
same,expression of CD95 in CD4+ T cells,"[3]; PBMC, throughout treatment",substantial increase
same,CD62L in CD4+ T cells,"[3]; after the first cycle, reverted to baseline later",small decrease
same,"expression of activation markers CD69, HLA-DR and Ki67 in CD4+ T cells",[3]; exception: HLA-DR increase at beginning of cycle 2,remained mostly unchanged
same,CCR7 expression in memory CD8+ T cells,"[3]; rhesus monkey, in vivo",sustained significant increase
same,CD16 expression within NKG2A+CD8+ NK cells,"[3]; rhesus monkey, in vivo",pronounced increase
same,CD95 expression in CD8+ T cells,"[3]; rhesus monkey, in vivo",No significant increase
same,TCF1 downregulation in CD8+ T cells,"[3]; rhesus monkey, in vivo",reached significance only at the end of the treatment
same,expression of CCR7 or CD28 within CD95+CD4+ T cells,"[3]; rhesus monkey, in vivo",no change
same,expression of PD1 on CD4+ and CD8+ T cells,"[3]; rhesus monkey, in vivo",either did not change or was slightly downregulated
same,frequency of naïve (CD95−) cells within CD4+ T cells,"[3]; rhesus monkey, in vivo",decreased
same,gut homing receptor integrin α4β7 in CD4+ T cells,"[3]; rhesus monkey, in vivo",downregulation
same,levels of T-bet in CD4+ T cells,"[3]; rhesus monkey, in vivo",did not change significantly
same,levels of granzyme B in CD4+ T cells,"[3]; rhesus monkey, in vivo",decrease
